Assays:
[1] = test system: Beet Armyworm (BAW) (Spodoptera exigua); assay: Bioassay on Beet Armyworm (BAW), 128-well diet tray assay; assay type: in vivo; conditions: for pest or weed control at 50 µg/cm2 / pest or weed control at 50 µg/cm2, 50 µg/cm2: Spodoptera exigua, read-out: BAW Rating; for pest or weed control at 50 µg/cm2: Table 5: Prophetic Compounds Subsequently Exemplified; for pest or weed control at 50 µg/cm2, 50 µg/cm2: 168 h, % mortality, second instar larvae, 50 μg/cm^2 on artificial diet, 25° C., five to seven days, average of eight wells; for BAW Rating: Table 3: Assay Results Part 1
Procedure, shortened: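 Artificial diet treated with 50 μg/cm^2 compound in 90:10 acetone-water was dried, then one to five second-instar larvae were placed per well, eight wells per compound. Trays were held at 25° C., 14:10 light-dark for five to seven days, and percent mortality averaged across wells.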

[2] = test system: Cabbage Looper (CL) (Trichoplusia ni); assay: Bioassay on Cabbage Looper (CL), 128-well diet tray assay; assay type: in vivo; conditions: read-out: CL Rating; for pest or weed control at 50 µg/cm2: Table 5: Prophetic Compounds Subsequently Exemplified; for pest or weed control at 50 µg/cm2, 50 µg/cm2: 168 h, % mortality, second instar larvae, 50 μg/cm^2 on artificial diet, 25° C., five to seven days, average of eight wells
Experimental: Certain molecules disclosed in this document were tested against BAW, CEW and CL using procedures described in the following examples. In the reporting of the results, the “BAW & CEW & CL Rating Table” was used (See Table Section).
Bioassays on CL (Trichoplusia ni)
Bioassays on CL were conducted using a 128-well diet tray assay. One to five second instar CL larvae were placed in each well (3 mL) of the diet tray that had been previously filled with 1 mL of artificial diet to which 50 μg/cm^2 of the test compound (dissolved in 50 μL of 90:10 acetone-water mixture) had been applied (to each of eight wells) and then allowed to dry. Trays were covered with a clear self-adhesive cover, and held at 25° C., 14:10 light-dark for five to seven days. Percent mortality was recorded for the larvae in each well; activity in the eight wells was then averaged. The results are indicated in the table entitled “Table 4: Assay Results Part 2” (See Table Section).

Row | SMILES | pest or weed control at 50 µg/cm2 [1] [%] | pest or weed control at 50 µg/cm2 [2] [%] | pest or weed control at 50 µg/cm2, 50 µg/cm2 [1] [%] | pest or weed control at 50 µg/cm2, 50 µg/cm2 [2] [%] | BAW Rating [1]
1 | O=C(NC1(C(=O)NCC(F)(F)F)CC1)c1ccc(/C=C/C(c2ccc(Br)c(Br)c2)C(F)(F)F)cc1C(F)(F)F (stereo not shown) [Compound P425] | 50 to 100 | 50 to 100 | – | – | –
2 | O=C(NC1(C(=O)NCC(F)F)CC1)c1ccc(/C=C/C(c2cc(Br)cc(Br)c2)C(F)(F)F)cc1C(F)(F)F (stereo not shown) [Compound P1195] | 50 to 100 | 50 to 100 | – | – | –
3 | O=C(NC1(C(=O)NCC(F)(F)F)CC1)c1ccc(/C=C/[C@H](c2cc(Cl)c(Cl)c(Cl)c2)C(F)(F)F)cc1C(F)(F)F (single isomer, unassigned) [Compound F8A] | – | – | 50 to 100 | 50 to 100 | –
4 | O=C(NC1(C(=O)NCC(F)(F)F)CCC1)c1ccc(/C=C/C(c2cc(Cl)c(Cl)c(Cl)c2)C(F)(F)F)cc1Cl (stereo not shown) [Compound F4] | – | – | 50 to 100 | 50 to 100 | –
5 | O=C(NC1(C(=O)NCC(F)(F)F)CC1)c1ccc(/C=C/C(c2cc(Cl)c(Cl)c(Cl)c2)C(F)(F)F)cc1Br (stereo not shown) [Compound F3] | – | – | 50 to 100 | 50 to 100 | –
6 | O=C(NC1(C(=O)NCC(F)(F)F)CC1)c1ccc(/C=C/C(c2cccc(OC(F)(F)F)c2)C(F)(F)F)cc1Br (stereo not shown) [Compound P153] | 50 to 100 | 50 to 100 | – | – | –
7 | O=C(NC1(C(=S)NCC(F)(F)F)CC1)c1ccc(/C=C/C(c2cc(Cl)c(Cl)c(Cl)c2)C(F)(F)F)cc1C(F)(F)F (stereo not shown) [Compound F6, (E)-4-(4,4,4-Trifluoro-3-(3,4,5-trichlorophenyl)but-1-enyl)-N-(1-(2,2,2-trifluoroethylcarbamothioyl)cyclopropyl)-2-(trifluoromethyl)benzamide] | – | – | 50 to 100 | 50 to 100 | –
8 | O=C(NC1(C(=O)NCC(F)(F)F)CC1)c1ccc(/C=C/C(c2cc(Cl)c(Cl)c(Cl)c2)C(F)(F)C(F)(F)F)cc1C(F)(F)F (stereo not shown) [Compound P1005] | 50 to 100 | 50 to 100 | – | – | –
9 | O=C(NC1(C(=O)NCCF)CC1)c1ccc(/C=C/C(c2cc(Br)cc(Br)c2)C(F)(F)F)cc1C(F)(F)F (stereo not shown) [Compound P1200] | 50 to 100 | 50 to 100 | – | – | –
10 | N#CC1(NC(=O)c2ccc(/C=C/C(c3cc(Cl)c(Cl)c(Cl)c3)C(F)(F)F)cc2Br)CC1 (stereo not shown) [Compound F7, (E)-2-Bromo-N-(1-cyanocyclopropyl)-4-(4,4,4-trifluoro-3-(3,4,5-trichlorophenyl)but-1-en-1-yl)benzamide] | – | – | 50 to 100 | 50 to 100 | –
11 | O=C(NC1(C(=O)NCC(F)F)CC1)c1ccc(/C=C/C(c2cc(Br)cc(Br)c2)C(F)(F)F)cc1Br (stereo not shown) [Compound P1193] | 50 to 100 | 50 to 100 | – | – | –
12 | O=C(NC1(C(=O)NCC(F)(F)F)CC1)c1ccc(/C=C/C(c2ccc(Cl)c([N+](=O)[O-])c2)C(F)(F)F)cc1Br (stereo not shown) [Compound P468] | 50 to 100 | 50 to 100 | – | – | –
13 | O=C(NC1(C(=O)NCCF)CC1)c1ccc(/C=C/C(c2cc(Cl)c(Cl)c(Cl)c2)C(F)(F)F)cc1C(F)(F)F (stereo not shown) [Compound P1020] | 50 to 100 | 50 to 100 | – | – | –
14 | O=C(NC1(C(=O)NCC(F)(F)F)CC1)c1ccc(/C=C/C(c2ccc(F)c(F)c2F)C(F)(F)F)cc1C(F)(F)F (stereo not shown) [Compound P65] | 50 to 100 | 50 to 100 | – | – | –
15 | Cc1cc(C(/C=C/c2ccc(C(=O)NC3(C(=O)NCC(F)(F)F)CC3)c(C(F)(F)F)c2)C(F)(F)F)cc(C)c1F (stereo not shown) [Compound P335] | 50 to 100 | 50 to 100 | – | – | –
16 | Cc1cc(C(/C=C/c2ccc(C(=O)NC3(C(=O)NCC(F)(F)F)CC3)c(C(F)(F)F)c2)C(F)(F)F)ccc1Cl (stereo not shown) [Compound P245] | 50 to 100 | 50 to 100 | – | – | –
17 | O=C(NC1(C(=O)NCC(F)(F)F)CC1)c1ccc(/C=C/C(c2cc(Br)cc(Br)c2)C(F)(F)F)cc1C(F)(F)F (stereo not shown) [Compound P1198] | 50 to 100 | 50 to 100 | – | – | –
18 | Cc1cc(/C=C/C(c2cc(Cl)c(Cl)c(Cl)c2)C(F)(F)F)ccc1C(=O)NC1(C(=S)NCC(F)(F)F)CC1 (stereo not shown) [Compound P1011] | 50 to 100 | 50 to 100 | – | – | –
19 | N#Cc1cc(C(/C=C/c2ccc(C(=O)NC3(C(=O)NCC(F)(F)F)CC3)c(Br)c2)C(F)(F)F)ccc1F (stereo not shown) [Compound P513] | 50 to 100 | 50 to 100 | – | – | –
20 | O=C(NC1(C(=O)NCC(F)(F)F)CC1)c1ccc(/C=C/C(c2cccc(OC(F)(F)F)c2)C(F)(F)F)cc1C(F)(F)F (stereo not shown) [Compound P155] | 50 to 100 | 50 to 100 | – | – | –

Row | SMILES | pest or weed control at 50 µg/cm2 [1] [%] | pest or weed control at 50 µg/cm2 [2] [%] | pest or weed control at 50 µg/cm2, 50 µg/cm2 [1] [%] | pest or weed control at 50 µg/cm2, 50 µg/cm2 [2] [%] | BAW Rating [1]
21 | O=C(NC1(C(=S)NCC(F)(F)F)CC1)c1ccc(/C=C/C(c2cc(Cl)c(Cl)c(Cl)c2)C(F)(F)F)cc1Br (stereo not shown) [Compound P1009] | 50 to 100 | 50 to 100 | – | – | –
22 | O=C(NC1(C(=O)NCC(F)(F)F)CC1)c1ccc(/C=C/C(c2ccc(Cl)c(Cl)c2)C(F)(F)F)cc1Br (stereo not shown) [Compound P1093] | 50 to 100 | 50 to 100 | – | – | –
23 | O=C(NC1(C(=O)NCC(F)(F)F)CC1)c1ccc(/C=C/C(c2cc(Cl)cc(Cl)c2)C(F)(F)C(F)(F)F)cc1C(F)(F)F (stereo not shown) [Compound P1045] | 50 to 100 | 50 to 100 | – | – | –
24 | O=C(NC1CC1(F)F)c1ccc(/C=C/C(c2cc(Cl)c(Cl)c(Cl)c2)C(F)(F)F)cc1Br (stereo not shown) [Compound P31] | 50 to 100 | 50 to 100 | – | – | –
25 | O=C(NC1(C(=O)NCCC(F)(F)F)CC1)c1ccc(/C=C/C(c2cc(Cl)c(Cl)c(Cl)c2)C(F)(F)F)cc1C(F)(F)F (stereo not shown) [Compound P1035] | 50 to 100 | 50 to 100 | – | – | –
26 | Cc1cc(/C=C/C(c2cc(Cl)c(Cl)c(Cl)c2)C(F)(F)F)ccc1C(=O)NC1(C(=O)NCC(F)(F)F)CC1 (stereo not shown) [Compound F2] | – | – | 50 to 100 | 50 to 100 | –
27 | O=C(NC1(C(=O)NCC(F)(F)F)CC1)c1ccc(/C=C/C(c2cc(F)cc(Br)c2)C(F)(F)F)cc1C(F)(F)F (stereo not shown) [Compound P200] | 50 to 100 | 50 to 100 | – | – | –
28 | O=C(NC1(C(=O)NCC(F)(F)F)CC1)c1ccc(/C=C/C(c2cc(Cl)c(Cl)c(Cl)c2)C(F)(F)F)cc1Cl (stereo not shown) [Compound F8] | – | – | 50 to 100 | 50 to 100 | –
29 | Cc1cc(C(/C=C/c2ccc(C(=O)NC3(C(=O)NCC(F)(F)F)CC3)c(C(F)(F)F)c2)C(F)(F)F)ccc1F (stereo not shown) [Compound P336] | 50 to 100 | 50 to 100 | – | – | –
30 | O=C(NC1(C(=O)NCCC(F)(F)F)CC1)c1ccc(/C=C/C(c2cc(Cl)c(Cl)c(Cl)c2)C(F)(F)F)cc1Br (stereo not shown) [Compound P1033] | 50 to 100 | 50 to 100 | – | – | –
31 | O=C(NC1(C(=O)NCC(F)(F)F)CC1)c1ccc(/C=C/C(c2cc(Cl)c(Cl)c(Cl)c2)C(F)(F)C(F)(F)F)cc1Br (stereo not shown) [Compound P1003] | 50 to 100 | 50 to 100 | – | – | –
32 | O=C(NC1(C(=O)NCC(F)(F)F)CC1)c1ccc(/C=C/[C@@H](c2cc(Cl)c(Cl)c(Cl)c2)C(F)(F)F)cc1C(F)(F)F (single isomer, unassigned) [Compound F8B] | – | – | 50 to 100 | 50 to 100 | –
33 | O=C(NC1(C(=O)NCC(F)(F)F)CC1)c1ccc(/C=C/C(c2ccc(Br)c(Br)c2)C(F)(F)F)cc1Br (stereo not shown) [Compound P423] | 50 to 100 | 50 to 100 | – | – | –
34 | CCNC(=O)C1(NC(=O)c2ccc(/C=C/C(c3cc(Cl)c(Cl)c(Cl)c3)C(F)(F)F)cc2Br)CC1 (stereo not shown) [Compound P1023] | 50 to 100 | 50 to 100 | – | – | –
35 | O=C(NC1(C(=O)NCC(F)(F)F)CCC1)c1ccc(/C=C/C(c2cc(Cl)c(Cl)c(Cl)c2)C(F)(F)F)cc1Br (stereo not shown) [Compound F5] | – | – | 50 to 100 | 50 to 100 | –
36 | O=C(NC1(C(=O)NCC(F)(F)F)CC1)c1ccc(/C=C/C(c2cc(Cl)cc(Cl)c2)C(F)(F)C(F)(F)F)cc1Br (stereo not shown) [Compound P1043] | 50 to 100 | 50 to 100 | – | – | –
37 | O=C(NC1(C(=O)NCCC(F)(F)F)CC1)c1ccc(/C=C/C(c2cc(Br)cc(Br)c2)C(F)(F)F)cc1Br (stereo not shown) [Compound P1213] | 50 to 100 | 50 to 100 | – | – | –
38 | O=C(CNC(=O)c1ccc(/C=C\C(c2cc(Cl)c(Cl)c(Cl)c2)C(F)(F)F)cc1Br)NCC(F)(F)F (stereo not shown) [AC95, (Z)-2-Bromo-N-(2-oxo-2-((2,2,2-trifluoroethyl)amino)ethyl)-4-(4,4,4-trifluoro-3-(3,4,5-trichlorophenyl)but-1-en-1-yl)benzamide] | – | – | – | – | A (50-100)
39 | O=C(Cn1ncc2cc(/C=C/C(c3cc(Cl)c(F)c(Cl)c3)C(F)(F)F)ccc2c1=O)NCC(F)(F)F (stereo not shown) [BC14, (E)-2-(6-(3-(3,5-Dichloro-4-fluorophenyl)-4,4,4-trifluorobut-1-en-1-yl)-1-oxophthalazin-2(1H)-yl)-N-(2,2,2-trifluoroethyl)acetamide] | – | – | – | – | A (50-100)

— patent US9212163B2, “Pesticidal compositions and processes related thereto” (Dow AgroSciences LLC, priority 2012, dated 2015)
